Like-named read-outs stand apart in the source and are kept apart here.
Legend:
[1] = target: T1, F1F0-ATPase (Bos taurus, UniProt P13621); assay: Inhibition of F1F0-ATPase activity in synthesizing ATP; type: biochemical; conditions: inhibition of ATP synthesis by F1F0-ATPase; read-out: ATP Syn IC50
T1 construct: from tissue

[2] = test system: Ramos cells; assay: Cytotoxicity in Ramos cells; type: cell-based; conditions: cytotoxicity in Ramos cells, read-out: Ramos Cell EC50

## O=C(/N=C(/NCC(F)(F)F)Nc1cc(C(F)(F)F)[nH]n1)c1ccc(C(F)(F)F)cc1 [Compound A-1]
[1]
  IC50: < 10 µM
[2]; Homo sapiens
  EC50: < 10 µM

## O=C(/N=C(/NCc1cccc(C(F)(F)F)c1)Nc1cc(C(F)(F)F)[nH]n1)c1ccc(C(F)(F)F)cc1 [Compound A-2]
[1]
  IC50: < 10 µM
[2]; Homo sapiens
  EC50: < 10 µM

## O=C(/N=C(/NCc1ccc(F)c(Cl)c1)Nc1cc(C(F)(F)F)[nH]n1)c1ccc(Cl)c(F)c1 [Compound A-3]
[1]
  IC50: < 10 µM
[2]; Homo sapiens
  EC50: < 10 µM

## CC(C)(C)N/C(=N/C(=O)c1ccc(Cl)cc1)Nc1cc(C(F)(F)F)[nH]n1 [Compound A-4]
[1]
  IC50: < 10 µM
[2]; Homo sapiens
  EC50: < 10 µM

## O=C(/N=C(/NCC(F)(F)F)Nc1cc(C(F)(F)F)[nH]n1)c1ccc(Cl)cc1 [Compound A-5]
[1]
  IC50: < 10 µM
[2]; Homo sapiens
  EC50: < 10 µM

## CC1(N/C(=N/C(=O)c2ccc(Cl)cc2)Nc2cc(C(F)(F)F)[nH]n2)CCC1 [Compound A-6]
[1]
  IC50: < 10 µM
[2]; Homo sapiens
  EC50: < 10 µM

## O=C(/N=C(\Nc1cc(C(F)(F)F)[nH]n1)NC(C1CC1)C1CC1)c1ccc(Cl)cc1 [Compound A-7]
[1]
  IC50: < 10 µM
[2]; Homo sapiens
  EC50: < 10 µM

## O=C(/N=C(/NCc1ccccc1C(F)(F)F)Nc1cc(C(F)(F)F)n[nH]1)c1ccc(F)c(F)c1 [Compound A-8]
[1]
  IC50: < 10 µM
[2]; Homo sapiens
  EC50: < 10 µM

## O=C(/N=C(/NCc1ccccc1C(F)(F)F)Nc1cc(C(F)(F)F)n[nH]1)c1ccc(Cl)cc1 [Compound A-9]
[1]
  IC50: < 10 µM
[2]; Homo sapiens
  EC50: < 10 µM

## O=C(/N=C(/NCc1cccc(C(F)(F)F)c1)Nc1cc(C(F)(F)F)n[nH]1)c1ccc(Cl)cc1 [Compound A-10]
[1]
  IC50: < 10 µM
[2]; Homo sapiens
  EC50: < 10 µM

## O=C(/N=C(/NCC(F)(F)F)Nc1cc(C(F)(F)F)n[nH]1)c1ccc(F)c(F)c1 [Compound A-11]
[1]
  IC50: < 10 µM
[2]; Homo sapiens
  EC50: < 10 µM

## CC(C)(C)N/C(=N/C(=O)c1ccc(F)c(F)c1)Nc1cc(C(F)(F)F)n[nH]1 [Compound A-12]
[1]
  IC50: < 10 µM
[2]; Homo sapiens
  EC50: < 10 µM

## CC(C)(C)N/C(=N/C(=O)c1ccc(C(F)(F)F)cc1)Nc1cc(C(F)(F)F)n[nH]1 [Compound A-13]
[1]
  IC50: < 10 µM
[2]; Homo sapiens
  EC50: < 10 µM

## O=C(/N=C(\Nc1cc(C(F)(F)F)[nH]n1)NC1CCCCCC1)c1ccc(C(F)(F)F)cc1 [Compound A-14]
[1]
  IC50: < 10 µM
[2]; Homo sapiens
  EC50: < 10 µM

## CC(C)(C)c1cc(N/C(=N\C(=O)c2ccc(Cl)cc2)NC(C2CC2)C2CC2)n[nH]1 [Compound A-15]
[1]
  IC50: < 10 µM
[2]; Homo sapiens
  EC50: < 10 µM

## CC(C)(C)c1cc(N/C(=N\C(=O)c2ccc(Cl)cc2)NCC(F)(F)F)n[nH]1 [Compound A-16]
[1]
  IC50: < 10 µM
[2]; Homo sapiens
  EC50: < 10 µM

## CC1(N/C(=N/C(=O)c2ccc(Cl)cc2)Nc2cc(C(C)(C)C)[nH]n2)CCC1 [Compound A-17]
[1]
  IC50: < 10 µM
[2]; Homo sapiens
  EC50: < 10 µM

## O=C(/N=C(/NCc1ccc(F)cc1Cl)Nc1cc(C(F)(F)F)[nH]n1)c1ccc(C(F)(F)F)cc1 [Compound A-18]
[1]
  IC50: < 10 µM
[2]; Homo sapiens
  EC50: < 10 µM

## O=C(/N=C(/NCc1ccc(F)c(Cl)c1)Nc1cc(C(F)(F)F)[nH]n1)c1ccc(C(F)(F)F)cc1 [Compound A-19]
[1]
  IC50: < 10 µM
[2]; Homo sapiens
  EC50: < 10 µM

## O=C(/N=C(/NCc1ccc(Cl)c(F)c1)Nc1cc(C(F)(F)F)[nH]n1)c1ccc(C(F)(F)F)cc1 [Compound A-20]
[1]
  IC50: < 10 µM
[2]; Homo sapiens
  EC50: < 10 µM

## O=C(/N=C(/NCc1ccc(Cl)cc1F)Nc1cc(C(F)(F)F)[nH]n1)c1ccc(C(F)(F)F)cc1 [Compound A-21]
[1]
  IC50: < 10 µM
[2]; Homo sapiens
  EC50: < 10 µM

## CC(N/C(=N/C(=O)c1ccc(C(F)(F)F)cc1)Nc1cc(C(F)(F)F)[nH]n1)c1ccccc1Cl (stereo not drawn) [Compound A-22]
[1]
  IC50: < 10 µM
[2]; Homo sapiens
  EC50: < 10 µM

## CC(N/C(=N/C(=O)c1ccc(C(F)(F)F)cc1)Nc1cc(C(F)(F)F)[nH]n1)c1ccc(Cl)cc1 (stereo not drawn) [Compound A-23]
[1]
  IC50: < 10 µM
[2]; Homo sapiens
  EC50: < 10 µM

## O=C(/N=C(/NCc1ccc(F)cc1Cl)Nc1cc(C(F)(F)F)[nH]n1)c1ccc(F)c(F)c1 [Compound A-24]
[1]
  IC50: < 10 µM
[2]; Homo sapiens
  EC50: < 10 µM

## O=C(/N=C(/NCc1ccc(F)c(Cl)c1)Nc1cc(C(F)(F)F)[nH]n1)c1ccc(F)c(F)c1 [Compound A-25]
[1]
  IC50: < 10 µM
[2]; Homo sapiens
  EC50: < 10 µM

## O=C(/N=C(/NCc1ccc(Cl)c(F)c1)Nc1cc(C(F)(F)F)[nH]n1)c1ccc(F)c(F)c1 [Compound A-26]
[1]
  IC50: < 10 µM
[2]; Homo sapiens
  EC50: < 10 µM

## O=C(/N=C(/NCc1ccc(Cl)cc1F)Nc1cc(C(F)(F)F)[nH]n1)c1ccc(F)c(F)c1 [Compound A-27]
[1]
  IC50: < 10 µM
[2]; Homo sapiens
  EC50: < 10 µM

## CC(N/C(=N/C(=O)c1ccc(F)c(F)c1)Nc1cc(C(F)(F)F)[nH]n1)c1ccccc1Cl (stereo not drawn) [Compound A-28]
[1]
  IC50: < 10 µM
[2]; Homo sapiens
  EC50: < 10 µM

## CC(N/C(=N/C(=O)c1ccc(F)c(F)c1)Nc1cc(C(F)(F)F)[nH]n1)c1ccc(Cl)cc1 (stereo not drawn) [Compound A-29]
[1]
  IC50: < 10 µM
[2]; Homo sapiens
  EC50: < 10 µM

## O=C(/N=C(/NCc1ccc(F)cc1Cl)Nc1cc(C(F)(F)F)[nH]n1)c1ccc(Cl)cc1 [Compound A-30]
[1]
  IC50: < 10 µM
[2]; Homo sapiens
  EC50: < 10 µM

## O=C(/N=C(/NCc1ccc(F)c(Cl)c1)Nc1cc(C(F)(F)F)[nH]n1)c1ccc(Cl)cc1 [Compound A-31]
[1]
  IC50: < 10 µM
[2]; Homo sapiens
  EC50: < 10 µM

## O=C(/N=C(/NCc1ccc(Cl)c(F)c1)Nc1cc(C(F)(F)F)[nH]n1)c1ccc(Cl)cc1 [Compound A-32]
[1]
  IC50: < 10 µM
[2]; Homo sapiens
  EC50: < 10 µM

## O=C(/N=C(/NCc1ccc(Cl)cc1F)Nc1cc(C(F)(F)F)[nH]n1)c1ccc(Cl)cc1 [Compound A-33]
[1]
  IC50: < 10 µM
[2]; Homo sapiens
  EC50: < 10 µM

## CC(N/C(=N/C(=O)c1ccc(Cl)cc1)Nc1cc(C(F)(F)F)[nH]n1)c1ccccc1Cl (stereo not drawn) [Compound A-34]
[1]
  IC50: < 10 µM
[2]; Homo sapiens
  EC50: < 10 µM

## CC(N/C(=N/C(=O)c1ccc(Cl)cc1)Nc1cc(C(F)(F)F)[nH]n1)c1cccc(Cl)c1 (stereo not drawn) [Compound A-35]
[1]
  IC50: < 10 µM
[2]; Homo sapiens
  EC50: < 10 µM

## CC(N/C(=N/C(=O)c1ccc(Cl)cc1)Nc1cc(C(F)(F)F)[nH]n1)c1ccc(Cl)cc1 (stereo not drawn) [Compound A-36]
[1]
  IC50: < 10 µM
[2]; Homo sapiens
  EC50: < 10 µM

## CC(C)(C)N/C(=N/C(=O)c1ccc(Cl)cc1)Nc1n[nH]cc1C#N [Compound A-37]
[1]
  IC50: < 10 µM
[2]; Homo sapiens
  EC50: > 10 µM

## CC1(N/C(=N/C(=O)c2ccc(Cl)cc2)Nc2n[nH]c3ccccc23)CCC1 [Compound A-38]
[1]
  IC50: < 10 µM
[2]; Homo sapiens
  EC50: < 10 µM

## O=C(/N=C(/NCc1cc(F)c(F)c(F)c1)Nc1cc(C(F)(F)F)[nH]n1)c1ccc(F)c(F)c1 [Compound A-39]
[1]
  IC50: < 10 µM

## CC(C)(C)N/C(=N/C(=O)c1ccc(Cl)c(F)c1)Nc1cc(C(F)(F)F)[nH]n1 [Compound A-40]
[1]
  IC50: < 10 µM
[2]; Homo sapiens
  EC50: < 10 µM

## O=C(/N=C(\Nc1cc(C(F)(F)F)[nH]n1)NC1CCCCCC1)c1ccc(F)c(F)c1 [Compound A-41]
[1]
  IC50: < 10 µM
[2]; Homo sapiens
  EC50: < 10 µM

## CC(C)(C)CN/C(=N/C(=O)c1ccc(Cl)cc1)Nc1cc(C(F)(F)F)n[nH]1 [Compound A-42]
[1]
  IC50: < 10 µM
[2]; Homo sapiens
  EC50: < 10 µM

## CC(C)(C)CN/C(=N/C(=O)c1ccc(F)c(F)c1)Nc1cc(C(F)(F)F)n[nH]1 [Compound A-43]
[1]
  IC50: < 10 µM
[2]; Homo sapiens
  EC50: < 10 µM

## CN(/C(=N\C(=O)c1ccc(F)c(F)c1)NC(C)(C)C)c1cc(C(F)(F)F)[nH]n1 [Compound A-44]
[1]
  IC50: > 10 µM
[2]; Homo sapiens
  EC50: > 10 µM

## Cc1cc(N/C(=N\C(=O)c2ccc(F)c(F)c2)Nc2cc(F)cc(Cl)c2)n[nH]1 [Compound A-45]
[1]
  IC50: < 10 µM
[2]; Homo sapiens
  EC50: > 10 µM

## C[C@@H](N/C(=N/C(=O)c1ccc(F)c(F)c1)Nc1cc(C(F)(F)F)[nH]n1)c1ccc(Cl)cc1 [Compound A-46]
[1]
  IC50: < 10 µM
[2]; Homo sapiens
  EC50: < 10 µM

## C[C@H](N/C(=N/C(=O)c1ccc(F)c(F)c1)Nc1cc(C(F)(F)F)[nH]n1)c1ccc(Cl)cc1 [Compound A-47]
[1]
  IC50: < 10 µM
[2]; Homo sapiens
  EC50: < 10 µM

## Cn1nc(C(F)(F)F)cc1N/C(=N\C(=O)c1ccc(C(F)(F)F)cc1)Nc1cc(F)cc(Cl)c1 [Compound A-48]
[1]
  IC50: < 10 µM
[2]; Homo sapiens
  EC50: < 10 µM

## CC(C)(C)N/C(=N/C(=O)c1ccc(C(F)(F)F)cc1)Nc1cc(-c2ccc(F)cc2)[nH]n1 [Compound A-50]
[1]
  IC50: < 10 µM
[2]; Homo sapiens
  EC50: < 10 µM

## CC(C)(C)CN/C(=N/C(=O)c1ccc(C(F)(F)F)cc1)Nc1cc(C(F)(F)F)n[nH]1 [Compound A-51]
[1]
  IC50: < 10 µM
[2]; Homo sapiens
  EC50: < 10 µM

## O=C(/N=C(/Nc1cc(F)cc(Cl)c1)Nc1cc(C(F)F)[nH]n1)c1ccc(F)c(F)c1 [Compound A-52]
[1]
  IC50: < 10 µM
[2]; Homo sapiens
  EC50: < 10 µM

## CC(C)(C)N/C(=N/C(=O)c1ccc(C(F)(F)F)cc1)Nc1cc(C(F)F)[nH]n1 [Compound A-53]
[1]
  IC50: < 10 µM
[2]; Homo sapiens
  EC50: < 10 µM

## CC(C)(C)N/C(=N/C(=O)c1ccc(Cl)cc1)Nc1cc(C(F)F)[nH]n1 [Compound A-54]
[1]
  IC50: < 10 µM
[2]; Homo sapiens
  EC50: < 10 µM

## COC(=O)c1cc(N/C(=N\C(=O)c2ccc(C(F)(F)F)cc2)NC(C)(C)C)[nH]n1 [Compound A-339]
[2]
  EC50: > 10 µM

## CC(C)(C)N/C(=N/C(=O)c1ccc(Cl)c(F)c1)Nc1cc(-c2cc(F)cc(F)c2)n[nH]1 [Compound A-354]
[2]
  EC50: < 10 µM

## CC1(N/C(=N/C(=O)c2ccc(Cl)c(F)c2)Nc2cc(-c3cc(F)cc(F)c3)n[nH]2)CCCC1 [Compound A-355]
[2]
  EC50: > 10 µM

## CCC(C)N/C(=N/C(=O)c1ccc(Cl)c(F)c1)Nc1cc(-c2cc(F)cc(F)c2)n[nH]1 (stereo not drawn) [Compound A-356]
[2]
  EC50: < 10 µM

## CC(C)(N/C(=N/C(=O)c1ccc(Cl)c(F)c1)Nc1cc(-c2cc(F)cc(F)c2)n[nH]1)C(F)(F)F [Compound A-357]
[2]
  EC50: > 10 µM

## CC1(N/C(=N/C(=O)c2ccc(Cl)c(F)c2)Nc2cc(-c3cc(F)cc(F)c3)n[nH]2)CC1 [Compound A-358]
[2]
  EC50: < 10 µM

## COCC(C)(C)NC(=NC(=O)c1cccc(C#N)c1)Nc1cc(-c2ccc(F)cc2)n[nH]1 [Compound A-504]
[1]
  IC50: < 10 µM

## COCCOCC(C)(C)N/C(=N/C(=O)c1ccc(F)cc1)Nc1cc(-c2ccc(F)cc2)n[nH]1 [Compound A-507]
[2]
  EC50: < 10 µM

## CC(C)CN/C(=N/C(=O)c1cccc(C#N)c1)Nc1cc(-c2ccc(F)cc2)n[nH]1 [Compound A-508]
[2]
  EC50: < 10 µM

Reference: patent US9139532B2, “Pyrazolyl guanidine F1F0-atpase inhibitors and therapeutic uses thereof” (Lycera Corporation, priority 2010, dated 2015)
